# Experimental data as given in US20240316008A1, “TREATMENT OF SYSTEMIC IMMUNE ACTIVATION SYNDROMES” (TRANQUIS THERAPEUTICS, INC., priority 2020, published 2024).
# How the values were obtained:
# TNFα = TNFα secretion from LPS-stimulated BV2 cells (CBA assay); format: cell-based, murine; settings: 100 ng/ml LPS, 24 hours; for TNFα production by LPS-stimulated BV-2 myeloid cells: compared to control
# Experimental: LPS was used to induce cytokine secretion from BV-2 cells. Cells were incubated with TQS-168 at various concentrations to assess whether TQS-168 could suppress the LPS-promoted release of various cytokines from in vitro cell cultures. Cytokine secretion was measured by cytometric bead array (CBA) fluorescence-activated cell sorting (FACS).
# Briefly, a vial of BV2 frozen stock (1 million cells per ml in complete medium) was thawed into 10 mL of complete medium per vial for a total of 4 vials. The vials were then centrifuged at 1800 rpm for 3 minutes to wash away freezing media. The four vials were then pooled into 25 mL of complete medium. TQS-168 was prepared in DMSO.
# Cells were incubated for 24 hours in the presence of medium (negative control), LPS (positive control), DMSO+LPS (positive control, controlling additionally for presence of DMSO in the TQS-168 stock solution), or LPS+TQS-168 at final concentrations of 1 μM, 5 μM, 10 μM, and 20 μM.
# After the well plates were incubated overnight for 24 hours, they were centrifuged at 1800 rpm for 5 minutes. Next, 150 μl from each well was transferred to a new set of plates, of which 50 μl was used for CBA. The plates were then centrifuged with the cells, followed by addition of 100 μl of DAPI (50 ml of PBS+10 μl of DAPI stock at 1:5000 dilution). The plates were then incubated in the dark for 5 minutes, followed by addition of 100 μl of PBS and centrifuged at 1800 rpm for 5 minutes. Finally, the plates were resuspended in 200 μl of PBS and tested.
# Multiplexed cytometric bead array (CBA) assay was performed according to standard techniques to detect presence in the cell culture medium of secreted murine TNFα, IL-6, IFNγ, IL-12, monocyte chemoattractant protein 1 (MCP-1), and IL-10.
# A total of 4-11 replicates of BV2 cultures in different conditions were investigated. Frozen BV2 microglia cell line was thawed and propagated in complete media (RPMI, 10% heat inactivated FBS, 1% L-glutamine, 1% Pen-Strep) until growth rate reached log phase.
# Cells were stimulated with 100 ng/ml of LPS for 24 hours. […]
# IL-6 [1] = test: IL-6 secretion from LPS-stimulated BV2 cells (CBA assay); format: cell-based, murine; settings: 100 ng/ml LPS, 1 μM-20 μM, 24 hours
# Experimental: LPS was used to induce cytokine secretion from BV-2 cells. Cells were incubated with TQS-168 at various concentrations to assess whether TQS-168 could suppress the LPS-promoted release of various cytokines from in vitro cell cultures. Cytokine secretion was measured by cytometric bead array (CBA) fluorescence-activated cell sorting (FACS). Briefly, a vial of BV2 frozen stock (1 million cells per ml in complete medium) was thawed into 10 mL of complete medium per vial for a total of 4 vials. The vials were then centrifuged at 1800 rpm for 3 minutes to wash away freezing media. The four vials were then pooled into 25 mL of complete medium. TQS-168 was prepared in DMSO. Cells were incubated for 24 hours in the presence of medium (negative control), LPS (positive control), DMSO+LPS (positive control, controlling additionally for presence of DMSO in the TQS-168 stock solution), or LPS+TQS-168 at final concentrations of 1 μM, 5 μM, 10 μM, and 20 μM. After the well plates were incubated overnight for 24 hours, they were centrifuged at 1800 rpm for 5 minutes. Next, 150 μl from each well was transferred to a new set of plates, of which 50 μl was used for CBA. The plates were then centrifuged with the cells, followed by addition of 100 μl of DAPI (50 ml of PBS+10 μl of DAPI stock at 1:5000 dilution). […]
# IL-6 [2] = test: LPS-stimulated IL-6 secretion from human PBMC (ELISA); format: cell-based; settings: human PBMC from a first donor, 1 ng/ml LPS, 24h
# Experimental: Briefly, 20,000 human PBMC were aliquoted into each well. LPS was added at 1 ng/ml and the cells incubated for 24h in the presence of LPS and TQS-168 or one of its metabolites. Readouts were human IL-6 ELISA and human TNFα ELISA. For assay, supernatants were diluted in culture medium. The supernatant dilution for the IL-6 ELISA was 1:8, and 1:2 for the human TNFα ELISA.
# [3] = tested on: 12 human primary cell-based systems; test: Eurofins BioMAP Diversity PLUS panel
# [4] = tested on: neurodegenerative diseases; settings: murine models of Parkinson's disease, Alzheimer's disease, ALS; cited from earlier work
# [5] = BioMAP report, profile at 6.7 μM, 2.2 μM, 740 nM
# [6] = profile at 6.7 μM, 2.2 μM, 740 nM
# [7] = profile at 20 μM, 6.7 μM, 2.2 μM, 740 nM
smiles,measurement,setting,value
"CC(C)(C)c1ccc(-c2nc3ccccc3[nH]2)cc1 [TQS-168, 2-(4-tert-butylphenyl)-1H-benzimidazole]",TNFα production by LPS-stimulated BV-2 myeloid cells,TNFα; 5 μM,suppress
same,TNFα production by LPS-stimulated BV-2 myeloid cells,TNFα; 20 μM,suppress
same,LPS-induced secretion of TNFα,"TNFα; BV2 cells, 1 μM-20 μM",reduce
same,LPS-induced secretion of IL-6,IL-6 [1],reduce
same,LPS-stimulated IL-6 secretion from PBMCs,IL-6 [2],inhibition
same,"decrease in sIgG, sIL-17F, sTNFα from B and T cells",[3]; 6.7 μM,greatest decrease
same,cytotoxicity to endothelial cells,[3]; 20 μM,cytotoxic
same,highest nontoxic concentration tested,[3]; BioMAP Diversity PLUS panel,6.7 µM
same,tissue remodeling activity MMP-1,[3]; [5],increased
same,tissue remodeling activity αSMA,[3]; [5],decreased
same,activity at non-cytotoxic concentrations,[3]; [6],active
same,"immune markers sIgG, sIL-17-F, sTNFα (from B and T cells, not monocytes)",[3]; [6],decreased
same,"inflammatory markers sPGE2 (from monocytes), IL-8",[3]; [6],decreased
same,"proliferation of endothelial cells, T cells, B cells & fibroblasts",[3]; [6],anti-proliferative
same,sIL-6,[3]; [6],increased
same,"tissue remodeling markers MMP1, alpha-SMA",[3]; [6],modulated
same,VCAM-1,[3]; [7],increased
same,"immune markers sIgG, sIL-17A, sIL-17F, sIL-2, sTNFα, sIL-6 (from B and T cells, not monocytes)",[3]; [7],decreased
same,disease severity,[4],reduce
same,myeloid-mediated inflammation,[4],suppress
